# Article PMC7497403, “Development of Potent PfCLK3 Inhibitors Based on TCMDC-135051 as a New Class of Antimalarials” (Journal of Medicinal Chemistry, 2020)
# Assays:
# Microsomal stability = format: in vitro ADME; conditions: mouse liver microsomes; 1 μM compound
# Protocol: Compounds were incubated at 37 °C at a concentration of 1 μM with CD1 mouse liver microsomes (GIBCO, Thermo Fisher Scientific) in a suspension of 50 mM potassium phosphate buffer (pH 7.4) with a final protein concentration of 0.5 mg/mL. The reaction was started by the addition of excess NADPH and then quenched at several time points starting from time 0, then at 3, 6, 9, 15, and 30 min addition of acetonitrile to an aliquot of the sample. An internal standard was added to each sample before centrifugation to remove any precipitates before monitoring loss of parent compound by HPLC analysis using Shimadzu LC-20A (Shimadzu, UK). Prism (Graphpad, USA) was used to fit an exponential decay for substrate depletion and subsequently rate constant (k) from the peak area of the parent compound to the internal standard at each time point.
# CK1δ = CK1δ (Homo sapiens, UniProt P48730); experiment: Kinase screen; format: biochemical
# CK1δ, sequence (P48730 whole entry): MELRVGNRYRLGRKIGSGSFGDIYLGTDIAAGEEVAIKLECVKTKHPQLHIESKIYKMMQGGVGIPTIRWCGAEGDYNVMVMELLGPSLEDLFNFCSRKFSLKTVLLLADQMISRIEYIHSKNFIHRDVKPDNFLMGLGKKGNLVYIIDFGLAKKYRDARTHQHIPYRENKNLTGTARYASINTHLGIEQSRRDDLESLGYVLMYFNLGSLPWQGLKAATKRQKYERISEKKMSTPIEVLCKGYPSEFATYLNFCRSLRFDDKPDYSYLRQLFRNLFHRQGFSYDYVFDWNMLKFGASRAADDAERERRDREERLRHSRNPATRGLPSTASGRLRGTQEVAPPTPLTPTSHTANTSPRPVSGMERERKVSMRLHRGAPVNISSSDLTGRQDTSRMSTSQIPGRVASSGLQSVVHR
compound,measurement,setting,value
"CCN(CC)Cc1ccc(OC)c(-c2cc3c(-c4ccc(C(=O)O)c(C(C)C)c4)ccnc3[nH]2)c1 [analogue 1, 4-(2-(5-((Diethylamino)methyl)-2-methoxyphenyl)-1H-pyrrolo[2,3-b]pyridin-4-yl)-2-isopropylbenzoic Acid]",clint (in vitro intrinsic clearance),Microsomal stability,1.12 mL/min/g liver
same,activity at 1 µM,CK1δ,91%
